Results on 5 molecules are retold here after paper PMC3076582 (European Journal of Clinical Pharmacology, 2010).

Each structure is given as a SMILES string. Where two headings read alike, the source gives them in different places.

Data set [1] is classed as in vivo, human. As to conditions: for Dose-corrected serum concentration, 25th percentile / Dose-corrected serum concentration, 75th percentile / Dose-corrected serum concentration, mean / Dose-corrected serum concentration, median / Dose-corrected serum concentration, minimum to maximum / Uncorrected serum concentration, 25th percentile / Uncorrected serum concentration, 75th percentile / Uncorrected serum concentration, mean / Uncorrected serum concentration, minimum to maximum / Uncorrected serum concentration, median / Ratio metabolite/oxycodone serum concentration, 25th percentile / Ratio metabolite/oxycodone serum concentration, 75th percentile / Ratio metabolite/oxycodone serum concentration, mean / Ratio metabolite/oxycodone serum concentration, median / Ratio metabolite/oxycodone serum concentration, minimum to maximum: hospitalised patients; for Uncorrected serum concentration, median: oral oxycodone, trough sample; for Serum concentration, range / Serum concentration, median: partly different from Table 3; for Ratio metabolite/oxycodone serum concentration, 25th percentile / Ratio metabolite/oxycodone serum concentration, 75th percentile / Ratio metabolite/oxycodone serum concentration, mean / Ratio metabolite/oxycodone serum concentration, median / Ratio metabolite/oxycodone serum concentration, minimum to maximum: uncorrected serum concentrations.

The conditions of data set [2]: for Unstandardised coefficient B, ratio noroxycodone/oxycodone / Unstandardised coefficient B, oxycodone serum concentration / Unstandardised coefficient B, ratio oxymorphone/oxycodone: log 10 form.
The test system of another data set is CYP2D6. As to conditions: healthy volunteers; cited from earlier work.
In another data set the test system is CYP3A4. To be noted: cited from earlier work.
The conditions of data set [3]: Mann-Whitney U test; 35 users.
The conditions of data set [4]: cited from earlier work.
For data set [5] the following is noted: cited from earlier work. The source holds these as a separate data set.
For data set [6] the following is noted: cited from earlier work. The source holds these as a separate data set.
[7] abbreviates: factor: CYP3A4 inducer (yes = 1).
[8] abbreviates: factor: CYP3A4 inhibitor (yes = 1).
[9] abbreviates: factor: sex (men = 1, women = 0).
The mark [10] stands for this setting: factor: time from last oxycodone dose to blood sample.

As for `COc1ccc2c3c1O[C@H]1C(=O)CC[C@@]4(O)[C@@H](C2)NCC[C@]314` [Noroxycodone, noroxycodone], in data set [1], the “95% CI for the mean ratio metabolite/oxycodone” value was in the range of 1.4 to 1.8 nM; the “95% CI for the uncorrected mean serum concentration” value is 174 to 245 nM; the “Dose-corrected serum concentration, 25th percentile” value is on record as 103 nM × 100 mg 24 h^−1/dose 24 h^−1; the “Dose-corrected serum concentration, 75th percentile” value is recorded as 261 nM × 100 mg 24 h^−1/dose 24 h^−1. Besides, in data set [1], the “Dose-corrected serum concentration, mean” value is 212 nM × 100 mg 24 h^−1/dose 24 h^−1; the “Dose-corrected serum concentration, median” value is on record as 161 nM × 100 mg 24 h^−1/dose 24 h^−1; the “Dose-corrected serum concentration, minimum to maximum” value is given as 0–3,032 nM × 100 mg 24 h^−1/dose 24 h^−1; the “Uncorrected serum concentration, 25th percentile” value amounted to 44 nM. Also, in data set [1], the “Uncorrected serum concentration, 75th percentile” value came to 211 nM; the “Uncorrected serum concentration, mean” value turned out to be 209 nM; the “Uncorrected serum concentration, minimum to maximum” value is recorded as 0–3,571 nM; the “Uncorrected serum concentration, median” value is listed as 101 nM. Moreover, in data set [1], the “Serum concentration, range” value was 0 to 4,858 nM; the “Ratio metabolite/oxycodone serum concentration, 25th percentile” value came to 0.7; the “Ratio metabolite/oxycodone serum concentration, 75th percentile” value was 1.9; the “Ratio metabolite/oxycodone serum concentration, mean” value is 1.6. In data set [1], the “Ratio metabolite/oxycodone serum concentration, median” value was found to be 1.1 and the “Ratio metabolite/oxycodone serum concentration, minimum to maximum” value is listed as 0.1–24.4. Moreover, the “Unstandardised coefficient B, ratio noroxycodone/oxycodone” value in data set [2] (factor: BMI) was −0.009. In data set [2] (setting [7]), the “Unstandardised coefficient B, ratio noroxycodone/oxycodone” value was 0.602. In data set [2] (setting [8]), the “Unstandardised coefficient B, ratio noroxycodone/oxycodone” value was −0.294. For the same molecule, the “Unstandardised coefficient B, ratio noroxycodone/oxycodone” value in data set [2] (factor: albumin) is given as 0.006. Further, in data set [2] (factor: glomerular filtration rate), the “Unstandardised coefficient B, ratio noroxycodone/oxycodone” value is given as −0.001. In addition, the “Unstandardised coefficient B, ratio noroxycodone/oxycodone” value in data set [2] (factor: oxycodone total daily dose, n = 396, R^2 = 0.19) stood at 0.001. Moreover, the “Unstandardised coefficient B, ratio noroxycodone/oxycodone” value in data set [2] (setting [9]) was −0.110. Moreover, the “Unstandardised coefficient B, ratio noroxycodone/oxycodone” value in data set [2] (factor: systemic steroids (yes = 1)) is given as −0.070. For the same molecule, the “Unstandardised coefficient B, ratio noroxycodone/oxycodone” value in data set [2] (setting [10]) was 0.012. In data set [2] (human, in vivo), the “Predicted higher noroxycodone/oxycodone ratio in users of CYP3A4 inducers” value is on record as “about 4 times” and the “Predicted lower noroxycodone/oxycodone ratio in users of systemic steroids” value is recorded as 15%. Further, in the data set on CYP2D6, the “AUC after blocking the CYP2D6 metabolic pathways of oxycodone with quinidine” value (“AUC … with quinidine” for short) is recorded as “increased”. The “Cmax after blocking the CYP3A4 metabolic pathway with ketoconazole” value in the data set on CYP3A4 was “decreased”.
Regarding `O=C1CC[C@@]2(O)[C@H]3Cc4ccc(O)c5c4[C@@]2(CCN3)[C@H]1O5` [Noroxymorphone, noroxymorphone], in data set [1], the “Dose-corrected serum concentration, 25th percentile” value is reported as 18 nM × 100 mg 24 h^−1/dose 24 h^−1; the “Dose-corrected serum concentration, 75th percentile” value is 44 nM × 100 mg 24 h^−1/dose 24 h^−1; the “Dose-corrected serum concentration, mean” value is 34 nM × 100 mg 24 h^−1/dose 24 h^−1; the “Dose-corrected serum concentration, median” value is on record as 29 nM × 100 mg 24 h^−1/dose 24 h^−1. In data set [1], the “Dose-corrected serum concentration, minimum to maximum” value is on record as 0–360 nM × 100 mg 24 h^−1/dose 24 h^−1; the “Uncorrected serum concentration, 25th percentile” value stood at 8 nM; the “Uncorrected serum concentration, 75th percentile” value came to 39 nM; the “Uncorrected serum concentration, mean” value is reported as 30 nM. Moreover, in data set [1], the “Uncorrected serum concentration, minimum to maximum” value is 0 to 509 nM; the “Uncorrected serum concentration, median” value is 17 nM; the “Serum concentration, median” value is given as 17 nM; the “Serum concentration, range” value fell in the range of 0 to 509 nM.
For the molecule `COc1ccc2c3c1O[C@H]1C(=O)CC[C@@]4(O)[C@@H](C2)N(C)CC[C@]314` [Oxycodone, oxycodone, reference compound], in data set [1], the “95% CI for the uncorrected mean serum concentration” value was in the range of 139 to 183 nM; the “Dose-corrected serum concentration, 25th percentile” value is on record as 90 nM × 100 mg 24 h^−1/dose 24 h^−1; the “Dose-corrected serum concentration, 75th percentile” value is 225 nM × 100 mg 24 h^−1/dose 24 h^−1; the “Dose-corrected serum concentration, mean” value is listed as 186 nM × 100 mg 24 h^−1/dose 24 h^−1. Moreover, in data set [1], the “Dose-corrected serum concentration, median” value was 144 nM × 100 mg 24 h^−1/dose 24 h^−1; the “Dose-corrected serum concentration, minimum to maximum” value was 0–1,294 nM × 100 mg 24 h^−1/dose 24 h^−1; the “Uncorrected serum concentration, 25th percentile” value is listed as 43 nM; the “Uncorrected serum concentration, 75th percentile” value amounted to 201 nM. Also, in data set [1], the “Uncorrected serum concentration, mean” value came to 161 nM; the “Uncorrected serum concentration, minimum to maximum” value was 0–1,890 nM; the “Uncorrected serum concentration, median” value is given as 97 nM; the “Serum concentration, range” value is 0 to 1,890 nM. Besides, in data set [2] (calculated from the regression analysis), the “Predicted higher oxycodone serum concentration in men than in women” value is reported as “about 30%”. Moreover, the “Unstandardised coefficient B, oxycodone serum concentration” value in data set [2] (setting [7]) is on record as −0.786. Also, the “Unstandardised coefficient B, oxycodone serum concentration” value in data set [2] (setting [8]) is recorded as 0.204. Further, the “Unstandardised coefficient B, oxycodone serum concentration” value in data set [2] (factor: oxycodone total daily dose, n = 433, R^2 = 0.35) worked out at 0.002. Besides, in data set [2] (setting [9]), the “Unstandardised coefficient B, oxycodone serum concentration” value is reported as 0.113. For the same molecule, the “Unstandardised coefficient B, oxycodone serum concentration” value in data set [2] (setting [10]) was −0.027. In data set [2] (versus non-users), the “Predicted higher oxycodone serum concentration in users of CYP3A4 inhibitors” value is recorded as 60%. Besides, in data set [2] (versus those without CYP3A4 inducer drug), the “Predicted lower oxycodone serum concentration in users of CYP3A4 inducer drugs” value was 84%. Moreover, in data set [3], the “Serum concentration, users versus non-users of CYP2D6 inhibitors” value is reported as “did not differ”. The Oral bioavailability in data set [4] is listed as 60–87%. The “AUC … with quinidine” value in the data set on CYP2D6 is “increased”. Also, the “Plasma concentrations in elderly versus younger patients” value in data set [5] is given as “may have higher”.
With `CN1CC[C@]23c4c5ccc(O)c4O[C@H]2C(=O)CC[C@@]3(O)[C@H]1C5` [Oxymorphone, oxymorphone], in data set [1], the “95% CI for the mean ratio metabolite/oxycodone” value lay within 0.020 to 0.025 nM; the “95% CI for the uncorrected mean serum concentration” value fell in the range of 2.3 to 3.0 nM; the “Dose-corrected serum concentration, 25th percentile” value is 1.2 nM × 100 mg 24 h^−1/dose 24 h^−1; the “Dose-corrected serum concentration, 75th percentile” value is 4.2 nM × 100 mg 24 h^−1/dose 24 h^−1. Besides, in data set [1], the “Dose-corrected serum concentration, mean” value was 3.4 nM × 100 mg 24 h^−1/dose 24 h^−1; the “Dose-corrected serum concentration, median” value was 2.2 nM × 100 mg 24 h^−1/dose 24 h^−1; the “Dose-corrected serum concentration, minimum to maximum” value is given as 0–34 nM × 100 mg 24 h^−1/dose 24 h^−1; the “Uncorrected serum concentration, 25th percentile” value is listed as 0.7 nM. Further, in data set [1], the “Uncorrected serum concentration, 75th percentile” value was 3.2 nM; the “Uncorrected serum concentration, mean” value is 2.6 nM; the “Uncorrected serum concentration, minimum to maximum” value was in the range of 0 to 25 nM; the “Uncorrected serum concentration, median” value is listed as 1.5 nM. In data set [1], the “Serum concentration, median” value came to 1.5 nM; the “Serum concentration, range” value was in the range of 0 to 27 nM; the “Ratio metabolite/oxycodone serum concentration, 25th percentile” value stood at 0.01; the “Ratio metabolite/oxycodone serum concentration, 75th percentile” value stood at 0.03. Besides, in data set [1], the “Ratio metabolite/oxycodone serum concentration, mean” value stood at 0.02; the “Ratio metabolite/oxycodone serum concentration, median” value amounted to 0.02; the “Ratio metabolite/oxycodone serum concentration, minimum to maximum” value is 0.00032–0.21. The “Unstandardised coefficient B, ratio oxymorphone/oxycodone” value in data set [2] (setting [7]) amounted to 0.607. Also, the “Unstandardised coefficient B, ratio oxymorphone/oxycodone” value in data set [2] (factor: number of medications (excluding opioids) taken in the last 24 h) was −0.024. The “Unstandardised coefficient B, ratio oxymorphone/oxycodone” value in data set [2] (factor: oxycodone total daily dose, n = 438, R^2 = 0.05) is reported as −0.0004. For the same molecule, the “Serum concentration, users versus non-users of CYP2D6 inhibitors” value in data set [3] is “did not differ”. In addition, the “AUC … with quinidine” value with CYP2D6 is reported as “decreased”. The “AUC after blocking the CYP3A4 metabolic pathway with ketoconazole” value in the data set on CYP3A4 is “increased”. For the same molecule, the “Concentrations in patients with impaired hepatic function” value in data set [5] is “lower”.
On to `CN1CC[C@]23c4c5ccc(O)c4O[C@H]2[C@@H](O)C=C[C@H]3[C@H]1C5` [morphine], for which the “Additional morphine needed by men compared with women for pain relief” value in data set [6] was 30–40%.
